From publication PMC5320532, “Intracellular drug bioavailability: a new predictor of system dependent drug disposition” (Scientific Reports, 2017)
Read-outs that look alike come from different tables or passages of the source.

Tests used:
[1] = Intracellular fraction of unbound compound (fu,cell), dialysis of cell homogenate; format: in vitro ADME; settings: human, OATP1B1-transfected HEK293 cell homogenate, read-out: Cell binding (fu,cell)
Protocol: For intracellular fraction of unbound compound experiments, cell lines or primary cells were suspended to a concentration of 10 × 10^6 cells/ml in Hank’s balanced salt solution (HBSS). Cell suspensions were homogenized for 10 s with a VCX-500 ultrasonic processor (Sonics & Materials) at 20% intensity and used immediately for binding experiments.
Binding to cell homogenates at steady-state was measured using dialysis as previously described. […] Briefly, the cell homogenate was spiked with six randomly-chosen compounds. Homogenates were dialyzed for 4 h using a Rapid Equilibrium Dialysis device (Thermo Fisher Scientific Inc.). At the end of the incubation, uniform sample matrices were obtained by addition of blank homogenate to samples from the buffer chamber, and by addition blank buffer to samples from the homogenate chamber. Dilutions of samples from the homogenate chambers (10-fold and 100-fold) were prepared. […] Compounds in the supernatant were analyzed by ultra-performance liquid chromatography coupled to tandem mass spectrometry (UPLC-MS/MS), as described below.
The fraction of compound that was not bound to cell homogenate (fu,hom) was calculated according to: […]
where PAbuffer is the peak area of compound in the buffer chamber and PAhom is the peak area of compound in the homogenate chamber, both corrected for the peak area of the internal standard in the respective chamber. For each compound, the dilution of the homogenate sample where PAhom was closest to PAbuffer was used.
The fraction of unbound compound in the cell (fu,cell) was calculated according to: […]

[2] = test system: P-gp; set-up: method as in earlier work; settings: dot = substrate; collated from literature ref 74, 75, 76; cited from earlier work
[3] = test system: OATP1B1; settings: dot = substrate; collated from literature ref 74, 75, 76; cited from earlier work
[4] = Intracellular compound accumulation (Kp) and intracellular bioavailability (Fic); settings: human, mock-transfected HEK293 cells
Protocol: (§1) To determine intracellular unbound compound concentrations, we measured intracellular fraction of unbound compound (fu,cell) in parallel with total intracellular compound accumulation (Ccell), as described below. Intracellular compound bioavailability (Fic) was calculated as the ratio between intracellular unbound compound concentration (Cu,cell = fu,cell∙Ccell) (the concentration available to bind intracellular targets) and the externally added compound concentration (Cmedium):
(§2) HEK293 cells were grown for two days in 24-well plates, as previously described[25]. MDCK cells were grown for two days in 96-well plates, prior to the intracellular compound accumulation experiments. The growth media were the same as described in the section ‘Cell line maintenance’ without addition of hygromycin B to avoid transporter inhibition.
(§3) Intracellular compound accumulation at steady-state was measured essentially as described before[25]. Briefly, cells were washed twice with HBSS and incubated for 45 min with solutions of single test compounds (in HBSS) on an orbital shaker (300 rpm) at 37 °C. At the end of the experiment, the remaining extracellular compound solutions were collected and cells were washed twice with ice-cold phosphate-buffered saline pH 7.4 (PBS). For hepatocytes in suspension, the cells were separated from the extracellular solutions by centrifugation (100 × g for 5 min). Compounds were extracted from the cells using acetonitrile/water (60:40) spiked with 50 nM warfarin (internal standard). Extracellular medium samples were diluted 10-fold with the same extraction solution. […] Protein concentrations were measured in representative wells of the plates using the BCA Protein Assay Reagent Kit (Thermo Fisher Scientific Inc.).
(§4) The ratio between total compound concentrations in the cells and in the medium (Kp) was calculated according to:
(§5) where Acell is the amount of compound in the cell samples, Vcell is the cell volume (6.5 μL/mg protein[80]), and Cmedium is the compound concentration in the medium sample.

[5] = test system: OATP1B1; experiment: as above; settings: human, OATP1B1-transfected HEK293 cells
Protocol: as §1, §2, §3, §4, §5

[6] = test system: P-gp; experiment: as above; settings: dog, P-gp-KO (CRISPR) MDCK cells
Protocol: as §1, §2, §3, §4, §5

[7] = test system: P-gp; experiment: as above; settings: dog, P-gp-transfected MDCK cells
Protocol: as §1, §2, §3, §4, §5

[8] = test system: P-gp; experiment: as above; settings: dog, MDCK II wild-type cells
Protocol: as §1, §2, §3, §4, §5

[9] = Intracellular fraction of unbound compound (fu,cell), dialysis of cell homogenate; settings: human, mock-transfected HEK293 cell homogenate
[10] = as above; settings: dog, homogenate of MDCK cells transfected with human P-gp
[11] = set-up: method as in PMID 19785645; settings: human subjects; co-administration of cyclosporine A ref 58; cited from earlier work
[12] = Intracellular fraction of unbound compound (fu,cell), dialysis of cell homogenate; format: in vitro ADME; settings: freshly isolated human hepatocyte homogenate; geometrical mean ± S.E.M.; read-out: fu,cell hepatocytes
[13] = Intracellular compound accumulation (Kp) and intracellular bioavailability (Fic); format: in vitro ADME; settings: geometrical mean ± S.E.M.; for Kp at 45 min: freshly isolated human hepatocytes in suspension; for Kp at 24 h: human hepatocytes cultured for 24 h in monolayer format, Monolayer hepatocytes (human, 24 h culture)
Protocol: where Kp is the ratio Ccell/Cmedium.
Hepatocytes were isolated from human liver tissue obtained from two donors undergoing surgical resections at the Department of Surgery, Uppsala University Hospital. […] Isolation was performed using a two-step collagenase procedure, as previously described.
For the corresponding experiments in human hepatocytes, two cell culture configurations were used: freshly isolated cells in suspension, or cells cultivated as monolayers for 24 h. The freshly isolated cells were suspended directly after isolation at a concentration of 5 × 10^6 cells/ml in HBSS. The cell suspension (100 μl) was added to 96-well plates, which were immediately used for accumulation experiments. […] After cell attachment, medium was replaced by hepatocyte maintenance medium (Lonza) supplemented with insulin (10 μg/ml), transferrin (5.5 μg/ml), selenium (5 ng/ml), penicillin (100 units/ml), streptomycin (100 μg/ml), and dexamethasone (0.1 μM). Cells were kept in maintenance medium for 24 h, until the start of the intracellular compound accumulation experiments.

[14] = in vitro; settings: dog
[15] = in vitro; settings: human

| SMILES | fraction unbound at 4 h ([1]; geometrical mean ± S.E.M.) | P-gp substrate [2] | OATP1B1 substrate [3] | Kp at 45 min, 0.1 μM [4] | Kp at 45 min, 0.1 μM [5] | Kp at 45 min, 0.5 μM [6] | Kp at 45 min, 0.5 μM [7] | Kp at 45 min [8] | fraction unbound at 4 h [9] | fraction unbound at 4 h [10] | increase of AUC by cyclosporine A [11] | fraction unbound at 4 h [12] | Kp at 45 min [13] | Kp at 24 h [13] | fraction unbound [14] | fraction unbound [15] | fraction unbound at 4 h [1] |
| --- | --- | --- | --- | --- | --- | --- | --- | --- | --- | --- | --- | --- | --- | --- | --- | --- | --- |
| CCOc1nc2cccc(C(=O)O)c2n1Cc1ccc(-c2ccccc2-c2nnn[nH]2)cc1 [Candesartan] | 0.094 ± 0.002 | ● | ● | 1.4 ± 0.2 | 2.8 ± 0.5 | 7.8 ± 2.3 | 2 ± 0.4 | 2.2 ± 0.3 | 0.093 ± 0.011 | 0.29 ± 0.02 | – | – | – | – | – | – | – |
| CC(C)n1c(/C=C/C(O)CC(O)CC(=O)O)c(-c2ccc(F)cc2)c2ccccc21 (centres unmarked) [Fluvastatin] | 0.015 ± 0.001 | ● | ● | 45 ± 6 | 94 ± 12 | 53 ± 4 | 21 ± 2 | 35 ± 5 | 0.017 ± 0.003 | 0.0099 ± 0.0026 | 3- to 4 fold | – | – | – | – | – | – |
| CCC(C)(C)C(=O)O[C@H]1C[C@@H](C)C=C2C=C[C@H](C)[C@H](CC[C@@H](O)C[C@@H](O)CC(=O)O)[C@H]21 [Simvastatin acid] | 0.021 ± 0.001 | ● | ● | 41 ± 4 | 64 ± 6 | – | 36 ± 2 | 72 ± 6 | 0.019 ± 0.003 | 0.0097 ± 0.0012 | – | – | – | – | – | – | – |
| Cc1cccc(C)c1OCC(=O)N[C@@H](Cc1ccccc1)[C@@H](O)C[C@H](Cc1ccccc1)NC(=O)[C@H](C(C)C)N1CCCNC1=O [Lopinavir] | 0.0077 ± 0.0004 | ● | – | – | – | – | – | – | 0.0093 ± 0.0027 | 0.0061 ± 0.0013 | – | 0.004 ± 0.0018 | – | – | – | – | – |
| CCOC(=O)[C@H](CCc1ccccc1)N[C@@H](C)C(=O)N1CCC[C@H]1C(=O)O [Enalapril] | 0.19 ± 0.01 | – | ● | 0.5 ± 0.05 | 0.86 ± 0.1 | 2.2 ± 0.4 | 2 ± 0.6 | 1.3 ± 0.2 | 0.23 ± 0.01 | 1 | – | – | – | – | – | – | – |
| COc1ccc(CCN2CCC(Nc3nc4ccccc4n3Cc3ccc(F)cc3)CC2)cc1 [Astemizole] | 0.0013 ± 0.0004 | – | – | 821 ± 253 | 738 ± 576 | 2010 ± 200 | 995 ± 94 | 1680 ± 71 | 0.0018 ± 0.0006 | – | – | 0.00036 ± 0.00012 | 1990 ± 1090 | 1600 ± 308 | 1e-05 ± 2e-05 | – | – |
| CN(CCOc1ccc(CC2SC(=O)NC2=O)cc1)c1ccccn1 (centres unmarked) [Rosiglitazone] | 0.044 ± 0.001 | – | – | 19 ± 2 | 15 ± 2 | 67 ± 11 | 30 ± 4 | 38 ± 7 | 0.058 ± 0.004 | 0.021 ± 0.003 | – | 0.02 ± 0.006 | 152 ± 12 | 196 ± 17 | – | – | – |
| CCOc1cc(CC(=O)N[C@@H](CC(C)C)c2ccccc2N2CCCCC2)ccc1C(=O)O [Repaglinide] | 0.019 ± 0.003 | ● | ● | 68 ± 8 | 73 ± 9 | 56 ± 4 | 32 ± 1 | 52 ± 5 | 0.016 ± 0.001 | 0.0069 ± 0.0008 | – | – | – | – | – | – | – |
| CC(C)NCC(O)COc1cccc2ccccc12 (centres unmarked) [Propranolol] | 0.032 ± 0.002 | – | – | 131 ± 15 | 126 ± 14 | 441 ± 34 | 314 ± 73 | 330 ± 13 | 0.032 ± 0.003 | 0.0037 ± 0.0017 | – | 0.013 ± 0.001 | – | – | – | – | – |
| CC(C)(C)NCC(O)COc1ccc(NC(=O)NC2CCCCC2)cc1 (centres unmarked) [Talinolol] | – | – | – | – | – | – | – | – | – | – | – | – | – | – | – | 0.074 ± 0.003 | – |
| CC(C)(C)NC(=O)[C@@H]1C[C@@H]2CCCC[C@@H]2CN1C[C@@H](O)[C@H](Cc1ccccc1)NC(=O)[C@H](CC(N)=O)NC(=O)c1ccc2ccccc2n1 [Saquinavir] | 0.0027 ± 0.0004 | ● | ● | 272 ± 43 | 302 ± 96 | 214 ± 35 | 96 ± 10 | 98 ± 9 | 0.0033 ± 0.0013 | 0.0028 ± 0.0011 | – | – | – | – | – | – | – |
| CC(=O)N1CCN(c2ccc(OCC3COC(Cn4ccnc4)(c4ccc(Cl)cc4Cl)O3)cc2)CC1 (centres unmarked) [Ketoconazole] | – | – | – | – | – | – | – | – | – | 0.0042 ± 0.0005 | – | 0.0061 ± 0.0011 | – | – | – | – | 0.012 ± 0.002 |
| COc1ccc2c(c1)c(CC(=O)O)c(C)n2C(=O)c1ccc(Cl)cc1 [Indomethacin] | 0.065 ± 0.004 | – | – | 13 ± 2 | 14 ± 1 | 25 ± 2 | 18 ± 2 | 22 ± 2 | 0.053 ± 0.006 | 0.025 ± 0.005 | – | 0.048 ± 0.012 | 50 ± 17 | 49 ± 4 | – | – | – |
| O=C(O)C[C@H](O)C[C@H](O)/C=C/c1c(C2CC2)nc2ccccc2c1-c1ccc(F)cc1 [Pitavastatin] | 0.025 ± 0.006 | ● | ● | 4.2 ± 0.3 | 35 ± 3 | 13 ± 1 | 11 ± 2 | 11 | 0.023 ± 0.005 | 0.023 ± 0.005 | 5- to 15 fold | 0.017 ± 0.011 | – | – | – | – | – |
